One data set concerns the target JAK2 (Homo sapiens (Human), UniProt O60674). The data set can be described thus: Biochemical JAK and Tyk2 Kinase Assays (LanthaScreen), JAK2. The note with it: 3 μM ATP (Km); pIC50 converted to pKi by Cheng-Prusoff. The method, then: (§1) Assay 1: Biochemical JAK and Tyk2 Kinase Assays
(§2) A panel of four LanthaScreen JAK biochemical assays (JAK1, 2, 3 and Tyk2) were carried in a common kinase reaction buffer (50 mM HEPES, pH 7.5, 0.01% Brij-35, 10 mM MgCl2, and 1 mM EGTA). Recombinant GST-tagged JAK enzymes and a GFP-tagged STAT1 peptide substrate were obtained from Life Technologies.
(§3) Serially or discretely diluted compounds were pre-incubated with each of the four JAK enzymes and the substrate in white 384-well microplates (Corning) at ambient temperature for 1 h. ATP was subsequently added to initiate the kinase reactions in 10 μL total volume, with 1% DMSO. The final enzyme concentrations for JAK1, 2, 3 and Tyk2 are 4.2 nM, 0.1 nM, 1 nM, and 0.25 nM respectively; the corresponding Km ATP concentrations used are 25 μM, 3 μM, 1.6 μM, and 10 μM; while the substrate concentration is 200 nM for all four assays. Kinase reactions were allowed to proceed for 1 hour at ambient temperature before a 10 μL preparation of EDTA (10 mM final concentration) and Tb-anti-pSTAT1 (pTyr701) antibody (Life Technologies, 2 nM final concentration) in TR-FRET dilution buffer (Life Technologies) was added. The plates were allowed to incubate at ambient temperature for 1 h before being read on the EnVision reader (Perkin Elmer). Emission ratio signals (520 nm/495 nm) were recorded and utilized to calculate the percent inhibition values based on DMSO and background controls.
(§4) For dose-response analysis, percent inhibition data were plotted vs. compound concentrations, and IC50 values were determined from a 4-parameter robust fit model with the Prism software (GraphPad Software). Results were expressed as pIC50 (negative logarithm of IC50) and subsequently converted to pKi (negative logarithm of dissociation constant, Ki) using the Cheng-Prusoff equation.

Another data set deals with JAK3 (Homo sapiens (Human), UniProt P52333). Put plainly: Biochemical JAK and Tyk2 Kinase Assays (LanthaScreen), JAK3. The note with it: 1.6 μM ATP (Km), pIC50 converted to pKi by Cheng-Prusoff.
JAK3, sequence (P52333 whole entry): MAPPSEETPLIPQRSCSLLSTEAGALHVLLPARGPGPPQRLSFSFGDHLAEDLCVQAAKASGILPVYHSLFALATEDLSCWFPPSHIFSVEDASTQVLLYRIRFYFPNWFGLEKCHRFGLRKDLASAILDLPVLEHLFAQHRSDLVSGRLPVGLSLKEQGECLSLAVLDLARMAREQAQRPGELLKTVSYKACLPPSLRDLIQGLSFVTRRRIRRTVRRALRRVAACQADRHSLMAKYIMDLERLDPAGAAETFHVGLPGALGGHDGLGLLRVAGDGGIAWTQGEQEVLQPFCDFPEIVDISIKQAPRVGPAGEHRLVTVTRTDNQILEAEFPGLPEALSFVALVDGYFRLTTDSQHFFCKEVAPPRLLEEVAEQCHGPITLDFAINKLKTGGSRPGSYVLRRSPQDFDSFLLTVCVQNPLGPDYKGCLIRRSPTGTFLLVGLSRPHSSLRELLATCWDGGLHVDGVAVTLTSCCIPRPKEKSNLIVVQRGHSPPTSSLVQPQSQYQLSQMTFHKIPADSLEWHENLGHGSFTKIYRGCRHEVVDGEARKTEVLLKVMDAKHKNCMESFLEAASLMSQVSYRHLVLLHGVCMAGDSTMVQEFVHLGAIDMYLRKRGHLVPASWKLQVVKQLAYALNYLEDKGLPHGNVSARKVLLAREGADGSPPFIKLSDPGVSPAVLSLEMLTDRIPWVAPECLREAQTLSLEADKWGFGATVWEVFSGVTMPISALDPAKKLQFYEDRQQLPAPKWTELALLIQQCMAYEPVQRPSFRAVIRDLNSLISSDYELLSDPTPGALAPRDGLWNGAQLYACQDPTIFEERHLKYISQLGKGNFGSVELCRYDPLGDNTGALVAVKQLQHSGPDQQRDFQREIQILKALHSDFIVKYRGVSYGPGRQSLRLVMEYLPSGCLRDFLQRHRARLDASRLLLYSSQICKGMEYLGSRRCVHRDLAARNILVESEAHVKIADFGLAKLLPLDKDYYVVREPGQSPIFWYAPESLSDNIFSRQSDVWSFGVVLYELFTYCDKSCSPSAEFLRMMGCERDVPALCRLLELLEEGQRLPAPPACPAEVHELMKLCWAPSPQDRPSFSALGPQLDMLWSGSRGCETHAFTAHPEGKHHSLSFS
The target in a further data set is Tyk2 (Homo sapiens (Human), UniProt P29597). Put plainly: Biochemical JAK and Tyk2 Kinase Assays (LanthaScreen), Tyk2. The note with it: 10 μM ATP (Km), pIC50 converted to pKi by Cheng-Prusoff. Here is the method:
as §1, §2, §3, §4

The test system of data set [1] is IL-22 suppressed Filaggrin expression in normal human epidermal keratinocytes. Put plainly: Recovery of IL-22 Suppressed Filaggrin in Normal Human Epidermal Keratinocytes. It is filed as cell-based. The settings on record: IL-22 50 ng/mL, real-time PCR. The method, then:
Assay 7: Recovery of IL-22 Suppressed Filaggrin in Normal Human Epidermal Keratinocytes
IL-22 is known to inhibit the expression of terminal differentiation genes, such as Filaggrin. The recovery level of test compound for interleukin-22 (IL-22) suppressed Filaggrin expression was measured in the normal human epidermal keratinocytes (ATCC) using real-time PCR.
Primary epidermal keratinocytes were cultured in a 37° C., 5% CO2 humidified incubator in dermal cell basal medium (ATCC) supplemented with keratinocyte growth kit (ATCC) and 1× Pen/Strep (Life Technologies). Cells were seeded at 5,000 cells/well in BioCoat 96-well plates (Corning) with 100 μl and incubated at 37° C., 5% CO2 for 3 to 4 days till 100% confluency. Then, the medium was removed and replaced with 1504 of medium containing does-response of test compounds. Compounds were serially diluted in DMSO and then diluted another 1000-fold in media to bring the final DMSO concentration to 0.1%. On day 1 of the assay, cells were incubated with test compounds at 37° C. for 1 h, and followed by the addition of followed by the addition of IL-22 (R&D Systems; final concentration 50 ng/mL) in pre-warmed media (50 μL) for 4 days. The medium with test compounds and IL-22 was changed once on day 3. On day 5, cells were washed with 1×PBS (Gibco) and lysed with 50 μl of Lysis Buffer containing 0.5 μl DnaseI from TaqMan® Gene Expression Cells-to-Ct™ Kit (Life Technologies). After incubation at room temperature (RT) for 5 minutes, 5 μl of Stop solution from the kit was added and then incubated at RT for 2 minutes. 11.25 μl of lysate, 12.5 μl of 2×RT buffer and 1.25 μl 20×RT enzyme mix from the kit were mixed. The reverse transcription reaction was carried out by incubating the mixture at 37° C. for 60 minutes and then 95° C. for 5 minutes to generate cDNA. To assemble the PCR cocktail, each reaction contained 10 μl of 2× TaqMan® Gene Expression Mater Mix, 1 μl of 2× TaqMan® Filaggrin Gene Expression Assay (Life Technologies), 1 μl of 2× TaqMan® UBC Gene Expression Assay (Life Technologies), 4 μl of nuclease-free water and 4 μl of cDNA. PCR reactions were done on StepOnePlus™ (Life Technologies) with cycling conditions of 50° C. for 2 minutes, 95° C. for 10 minutes followed by 40 cycles of 95° C. for 15 seconds and 60° C. for 1 minute. Fluorescence signals were captured after each cycle. Comparative CT method was used to quantify gene expression with cells without IL-22 and test compounds as baseline control.

Data set [2] is described as follows: Human Liver Microsome Assay. The settings on record: human liver microsomes 0.1 mg/mL, 0.1 μM compound, 1 mM NADPH, 37° C.
Method: Assay 4: Human Liver Microsome Assay
The objective of this assay was to assess the metabolic stability of test compounds in an in vitro human liver sub-fraction. Human liver microsomes obtained from Bioreclamation-IVT (Baltimore, Md.) were thawed on ice and diluted into 0.1 M potassium phosphate buffer pH 7.4 to yield final incubation protein concentrations of 0.1 mg/mL. Test compounds (10 mM) were diluted into NADPH cofactor to yield final incubation concentrations of 0.1 μM test compound and 1 mM NADPH. Incubations were conducted at 37° C. temperature and test aliquots were taken at time points 0, 5, 8, 15, 30 and 45 minutes. Each aliquot was crashed into water with 3% formic acid and 1 μM internal standard. The resulting samples were injected onto an LC-MS/MS system for analysis.
For each incubation, the peak area of the analytes in each t0 aliquot was set to 100% and the peak areas from subsequent time point aliquots were converted to percentage of parent compound remaining relative to t0. The percentage of parent compound remaining was converted to natural log scale and plotted versus time in minutes. A linear regression analysis was performed for the initial decline of the parent disappearance profile and a formula for the best-fit line determined. The slope of the resultant line was normalized to protein concentration in mg/mL protein or number of cells/mL and CLint was calculated as follows for liver microsomes: CLint(μL·min^−1·mg^−1)=(Slope×1000)/[protein,mg/mL]
CLint values from 9-49 μl/min/mg represent moderate clearance (i.e. 30-70% of hepatic blood flow in human) and values >50 μl/min/mg represent high hepatic clearance (i.e. >70% of hepatic blood flow in human).
A short description of another data set: physchem. The settings on record: thermodynamic from solid.

In brackets after ≈: the same amount, converted by molar mass. Where only a bound is given, the exact number is not on record here.

Tyk2, sequence (P29597 whole entry): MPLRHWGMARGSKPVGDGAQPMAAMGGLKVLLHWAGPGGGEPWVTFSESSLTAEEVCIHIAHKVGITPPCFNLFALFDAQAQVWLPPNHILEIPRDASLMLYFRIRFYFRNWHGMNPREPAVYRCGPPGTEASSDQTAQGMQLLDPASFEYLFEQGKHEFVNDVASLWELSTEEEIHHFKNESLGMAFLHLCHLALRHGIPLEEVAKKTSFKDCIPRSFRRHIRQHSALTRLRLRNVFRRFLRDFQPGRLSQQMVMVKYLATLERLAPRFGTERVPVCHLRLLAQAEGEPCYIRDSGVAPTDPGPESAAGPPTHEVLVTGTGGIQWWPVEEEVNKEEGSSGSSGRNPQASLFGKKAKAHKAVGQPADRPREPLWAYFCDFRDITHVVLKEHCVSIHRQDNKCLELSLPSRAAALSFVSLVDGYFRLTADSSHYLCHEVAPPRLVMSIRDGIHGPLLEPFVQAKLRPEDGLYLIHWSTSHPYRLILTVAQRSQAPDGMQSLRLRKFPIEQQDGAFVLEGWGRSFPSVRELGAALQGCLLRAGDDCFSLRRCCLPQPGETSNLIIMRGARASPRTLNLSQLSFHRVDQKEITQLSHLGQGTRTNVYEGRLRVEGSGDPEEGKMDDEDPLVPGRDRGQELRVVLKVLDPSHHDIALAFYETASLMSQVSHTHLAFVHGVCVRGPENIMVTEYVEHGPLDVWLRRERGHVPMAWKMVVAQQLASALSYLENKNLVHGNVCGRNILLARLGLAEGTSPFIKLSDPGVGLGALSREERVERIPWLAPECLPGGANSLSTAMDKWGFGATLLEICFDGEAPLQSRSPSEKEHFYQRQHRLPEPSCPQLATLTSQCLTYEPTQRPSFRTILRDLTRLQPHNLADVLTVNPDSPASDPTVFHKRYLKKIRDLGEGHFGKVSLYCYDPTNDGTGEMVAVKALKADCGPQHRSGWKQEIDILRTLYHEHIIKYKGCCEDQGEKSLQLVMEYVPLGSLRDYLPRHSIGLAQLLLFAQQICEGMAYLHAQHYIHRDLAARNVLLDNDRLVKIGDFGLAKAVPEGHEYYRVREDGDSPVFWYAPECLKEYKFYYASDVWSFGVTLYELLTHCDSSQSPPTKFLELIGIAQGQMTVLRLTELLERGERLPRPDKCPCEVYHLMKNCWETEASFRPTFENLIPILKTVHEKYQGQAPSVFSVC
JAK2, sequence (O60674 whole entry): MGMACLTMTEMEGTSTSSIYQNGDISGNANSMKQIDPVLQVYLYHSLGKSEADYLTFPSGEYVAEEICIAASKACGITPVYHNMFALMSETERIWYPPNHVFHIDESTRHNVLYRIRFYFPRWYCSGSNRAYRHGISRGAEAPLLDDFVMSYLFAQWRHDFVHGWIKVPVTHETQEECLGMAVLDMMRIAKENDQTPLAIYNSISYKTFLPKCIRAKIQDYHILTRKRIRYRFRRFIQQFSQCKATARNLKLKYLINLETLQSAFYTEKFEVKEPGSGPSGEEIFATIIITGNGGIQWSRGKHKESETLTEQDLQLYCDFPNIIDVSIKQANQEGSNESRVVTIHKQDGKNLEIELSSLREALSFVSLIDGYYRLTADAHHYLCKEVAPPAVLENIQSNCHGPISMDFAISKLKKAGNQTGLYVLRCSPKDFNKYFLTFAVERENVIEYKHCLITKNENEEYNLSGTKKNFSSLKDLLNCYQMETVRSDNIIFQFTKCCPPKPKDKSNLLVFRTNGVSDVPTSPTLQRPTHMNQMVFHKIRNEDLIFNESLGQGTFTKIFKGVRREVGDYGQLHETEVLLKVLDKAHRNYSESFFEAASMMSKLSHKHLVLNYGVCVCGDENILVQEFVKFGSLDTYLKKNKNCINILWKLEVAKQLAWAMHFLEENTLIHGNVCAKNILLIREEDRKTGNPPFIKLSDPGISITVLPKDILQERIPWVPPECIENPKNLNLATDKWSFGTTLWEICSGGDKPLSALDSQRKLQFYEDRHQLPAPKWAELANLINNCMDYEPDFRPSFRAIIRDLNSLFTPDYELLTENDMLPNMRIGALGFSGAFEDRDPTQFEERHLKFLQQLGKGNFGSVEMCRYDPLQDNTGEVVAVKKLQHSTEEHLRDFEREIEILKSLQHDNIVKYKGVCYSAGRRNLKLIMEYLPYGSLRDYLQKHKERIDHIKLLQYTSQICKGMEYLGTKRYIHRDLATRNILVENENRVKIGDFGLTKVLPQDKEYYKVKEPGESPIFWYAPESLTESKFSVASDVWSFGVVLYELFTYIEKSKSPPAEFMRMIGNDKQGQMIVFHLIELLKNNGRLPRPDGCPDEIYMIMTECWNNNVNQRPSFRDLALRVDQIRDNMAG
Method for physchem: Assay 6: Solubility Assay in Organic Excipients
The purpose of this assay was to quantify the solubility of test compounds in different organic excipients such as diisopropyl adipate, medium chain triglycerides (MCT), propylene glycol, and polyethylene glycol. The assay required 80 μL of 100 mM DMSO test compound solution per desired excipient in addition to 40 μL required to make a test standard.
The standard was created by diluting 40 μL of 100 mM DMSO compound stock solution into 160 μL of methanol and was shaken for five minutes to ensure solution uniformity. […] This 20,000 μM solution was run on an Agilent 1260 LC-MS system by injecting 0.2 μL in order to obtain the peak area. For the test solutions, 80 μL of 100 mM DMSO compound stock solution, per excipient, were dried down into a powder overnight. Once in powder form, 400 μL of the desired excipient was added to the powder and allowed to shake vigorously for four hours. The maximum theoretical concentration for this sample solution was 20,000 μM. After four hours of shaking, the samples were centrifuged for 10 minutes at 3,000 RPM before injecting 0.2 μL on the same Agilent 1260 LC-MS system to obtain the peak area.

Turning to `CCS(=O)(=O)N1[C@@H]2CCC[C@H]1C[C@H](N(C)c1nc(Nc3cc(C)[nH]n3)cc(C3CCCO3)n1)C2` (stereo partly drawn) [Compound 8, N^2-((1R,3s,5S)-9-(ethylsulfonyl)-9-azabicyclo[3.3.1]nonan-3-yl)-N2-methyl-N4-(5-methyl-1H-pyrazol-3-yl)-6-(tetrahydrofuran-2-yl)pyrimidine-2,4-diamine], at JAK2, the “JAK 2 (pKi)” value is recorded as “A (A represents a pKi value ≥10 (Ki≤0.1 nM))”. Further, the “JAK 3 (pKi)” value at JAK3 was “B (B represents a pKi value between 9 and 10 (Ki between 1 nM and 0.1 nM))”. In addition, the “Tyk 2 (pKi)” value at Tyk2 was “A (A represents a pKi value ≥10 (Ki≤0.1 nM))”. Moreover, in data set [1], the “concentration at which recovery of IL-22 suppressed Filaggrin expression was observed” value (“concentration at which recovery” for short) is less than 1 µM. Further, in data set [2], the “HLM Clin μL/min/mg” value was “A (A represents a Clint value between 1250 and 3000)”.

Regarding `CCS(=O)(=O)N1[C@@H]2CCC[C@H]1C[C@H](N(C)c1nc(COC3COC3)c(F)c(Nc3cc(C)[nH]n3)n1)C2` [Compound 41, N2-((1R,3s,5S)-9-(ethylsulfonyl)-9-azabicyclo[3.3.1]nonan-3-yl)-5-fluoro-N2-methyl-N4-(5-methyl-1H-pyrazol-3-yl)-6-((oxetan-3-yloxy)methyl)pyrimidine-2,4-diamine], the “JAK 2 (pKi)” value at JAK2 was “A (A represents a pKi value ≥10 (Ki≤0.1 nM))”. Also, at JAK3, the “JAK 3 (pKi)” value is “B (B represents a pKi value between 9 and 10 (Ki between 1 nM and 0.1 nM))”. For the same molecule, the “Tyk 2 (pKi)” value on Tyk2 was “A (A represents a pKi value ≥10 (Ki≤0.1 nM))”. Moreover, the “concentration at which recovery” value in data set [1] was less than 1 µM. Further, the “HLM Clin μL/min/mg” value in data set [2] was “C (C represents a Clint value between 130 and 500)”.

On to `CCS(=O)(=O)N1[C@@H]2CCC[C@H]1C[C@H](N(C)c1nc(CO[C@H]3CCOC3)c(F)c(Nc3cc(C)[nH]n3)n1)C2` [Compound 42, N2-((1R,3s,5S)-9-(ethylsulfonyl)-9-azabicyclo[3.3.1]nonan-3-yl)-5-fluoro-N2-methyl-N4-(5-methyl-1H-pyrazol-3-yl)-6-((((S)-tetrahydrofuran-3-yl)oxy)methyl)pyrimidine-2,4-diamine], for which, on JAK2, the “JAK 2 (pKi)” value is reported as “A (A represents a pKi value ≥10 (Ki≤0.1 nM))”. At JAK3, the “JAK 3 (pKi)” value is “B (B represents a pKi value between 9 and 10 (Ki between 1 nM and 0.1 nM))”. In addition, the “Tyk 2 (pKi)” value at Tyk2 is on record as “A (A represents a pKi value ≥10 (Ki≤0.1 nM))”. For the same molecule, the “concentration at which recovery” value in data set [1] was less than 1 µM. In addition, the “HLM Clin μL/min/mg” value in data set [2] is “B (B represents a Clint value between 500 and 1250)”.

As for `COC(=O)N1[C@@H]2CCC[C@H]1C[C@H](N(C)c1nc(Nc3cc(C)[nH]n3)cc(O[C@@H]3CCOC3)n1)C2` [Compound 23], the “JAK 2 (pKi)” value at JAK2 is listed as “A (A represents a pKi value ≥10 (Ki≤0.1 nM))”. The Ki on JAK3 (read-out: JAK 3 (pKi) (converted)) and at Tyk2 (read-out: Tyk 2 (pKi) (converted)) was 0.1 to 1 nM each time. In data set [1], the “concentration at which recovery” value is less than 1 µM. In addition, the solubility at 4 h is 5 to 10 mg/mL (≈ 10.6 to 21.2 mM) in “physchem” (oil or lipid, Solubility in MCT (mg/mL)); greater than 10 mg/mL in “physchem” (organic solvent or mixture, Solubility in Diisopropyl adipate (mg/mL)); 5 to 10 mg/mL (≈ 10.6 to 21.2 mM) in the data set “physchem” (organic solvent or mixture, Solubility in PEG400 (mg/mL)); greater than 10 mg/mL in the data set “physchem” (organic solvent or mixture, Solubility in Propylene glycol (mg/mL)).

With `CCS(=O)(=O)N1[C@@H]2CCC[C@H]1C[C@H](N(C)c1nc(CO[C@@H]3CCOC3)c(F)c(Nc3cc(C)[nH]n3)n1)C2` [Compound 43, N2-((1R,3s,5S)-9-(ethylsulfonyl)-9-azabicyclo[3.3.1]nonan-3-yl)-5-fluoro-N2-methyl-N4-(5-methyl-1H-pyrazol-3-yl)-6-((((R)-tetrahydrofuran-3-yl)oxy)methyl)pyrimidine-2,4-diamine], the “JAK 2 (pKi)” value at JAK2 is on record as “A (A represents a pKi value ≥10 (Ki≤0.1 nM))”. On JAK3, the “JAK 3 (pKi)” value was “B (B represents a pKi value between 9 and 10 (Ki between 1 nM and 0.1 nM))”. The “Tyk 2 (pKi)” value on Tyk2 was “A (A represents a pKi value ≥10 (Ki≤0.1 nM))”. Further, the “concentration at which recovery” value in data set [1] is less than 1 µM. The “HLM Clin μL/min/mg” value in data set [2] was “C (C represents a Clint value between 130 and 500)”.

(Values after patent publication US11439641B2, “Pyrimidine JAK inhibitors for the treatment of skin diseases” (THERAVANCE BIOPHARMA R&D IP, LLC, priority 2019, dated 2022).)
